The source of these data is US9469645B2, “Compounds and compositions for the treatment of parasitic diseases” (Novartis AG, priority 2009, dated 2016).

The test system of one assay is W2 strain. The assay can be described thus: parasite proliferation assay in infected red blood cells (SYBR Green I), W2 strain. The format is cell-based. The note with it: Erythrocyte. From the text:
Compounds of the invention can be assayed to measure their capacity to inhibit proliferation of parasitemia in infected red blood cells. The proliferation is quantified by the addition of SYBR Green I (INVITROGEN)® dye which has a high affinity for double stranded DNA.

Another assay relates to 3D7 P. falciparum strain. Kind of assay: parasite proliferation assay in infected red blood cells (SYBR Green I). The format is cell-based, Plasmodium falciparum. The settings on record: Plasmodium falciparum, 3D7, Erythrocyte, 3D7 strain; read-out: EC50 3D7 strain. In outline: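 P. falciparum 3D7 grown in O+ human erythrocytes to 3–8% parasitemia and exposed to compounds. Proliferation read as the increase in parasite DNA. Detection used SYBR Green I in saponin/triton-X/EDTA lysis buffer, with overnight lysis at room temperature.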

As a reminder, the EC50 is the midpoint of the concentration-response curve.

Structures are written as SMILES.

Consider `CC1(C)c2nc(-c3ccc(F)cc3)c(Nc3cccc(C(F)(F)F)c3)n2CCN1C(=O)CN` [Compound 652], for which the EC50 in the assay with W2 strain (Plasmodium falciparum) stood at 12 nM; in the assay on 3D7 P. falciparum strain, 19 nM.

Take `CC1(C)c2nc(-c3ccc(F)cc3)c(Nc3ccc(F)cc3)n2CCN1C(=O)CNC(=O)CCc1ccc2oc3ccccc3c2c1` [Compound 727]: the values for the EC50 in the assay with W2 strain (Plasmodium falciparum) and in the assay on 3D7 P. falciparum strain were 2970 nM and 6560 nM, respectively.

In the case of `CC1(C)c2nc(-c3ccc(F)cc3)c(NC3CCCC3)n2CCN1C(=O)CN` [Compound 670], the EC50 is 711 nM with W2 strain (Plasmodium falciparum) and 402 nM in the assay with 3D7 P. falciparum strain.

`CCN(CC)CCOc1ccccc1-c1nc2ccccn2c1NC(C)(C)CC(C)(C)C` [Compound 744]: the EC50 was 2810 nM in the assay with W2 strain (Plasmodium falciparum) and 5240 nM in the assay on 3D7 P. falciparum strain.

Regarding `CC1(C)c2nc(-c3ccc(F)cc3)cn2CCN1C(=O)C(N)CCc1cccc(F)c1` (stereo not shown) [Compound 701], the EC50 was found to be 7350 nM with W2 strain (Plasmodium falciparum) and 8270 nM in the assay on 3D7 P. falciparum strain.

On to `CC(C)(C)OC(=O)N[C@@H](CC(=O)O)C(=O)N1CCn2c(nc(-c3cccc(F)c3)c2Nc2ccc(F)cc2)C1` [Compound 241], for which the EC50 in the assay on W2 strain was 2360 nM; with 3D7 P. falciparum strain, 5270 nM.

For the compound `COC(=O)c1ccc(Nc2c(-c3ccccc3)nc3n2CCN(C(=O)C(C)(C)N)C3)cc1` [Compound 9], the 50% effective concentration (EC50) with W2 strain stood at 3990 nM; with 3D7 P. falciparum strain it was 13800 nM.

For the compound `CC(C)(N)C(=O)N1CCn2c(nc(-c3cccc(F)c3)c2Nc2ccc(Cl)c(F)c2)C1` [Compound 229], the EC50 in the assay on W2 strain was found to be 7 nM; in the assay on 3D7 P. falciparum strain, 10 nM.

On to `CCc1ccc(Nc2c(-c3ccc(F)cc3)nc3n2CCN(C(=O)C(C)(C)N)C3)cc1` [Compound 641], for which the EC50 in the assay with W2 strain (Plasmodium falciparum) came to 1280 nM; in the assay on 3D7 P. falciparum strain, 799 nM.

Take `CCCCCNc1ccc(C[C@H](N)C(=O)N2CCn3c(nc(-c4ccc(F)cc4)c3Nc3ccc(C)cc3)C2)cc1` [Compound 272]: the results for the EC50 in the assay with W2 strain and in the assay on 3D7 P. falciparum strain were 3260 nM and 3590 nM, respectively.

In the case of `CC1(C)c2nc(-c3ccc(F)cc3)c(Nc3ccc(F)cc3)n2CCN1C(=O)CNC(=O)CCNC(=O)CCc1ccccc1` [Compound 728], the EC50 in the assay with W2 strain (Plasmodium falciparum) came to 1480 nM; in the assay with 3D7 P. falciparum strain it was 5400 nM.

For the compound `CCCC(=O)NCc1ccc(C[C@H](N)C(=O)N2CCn3c(nc(-c4ccc(F)cc4)c3Nc3ccc(C)cc3)C2)cc1` [Compound 218], the EC50 in the assay on W2 strain was found to be 4010 nM; in the assay on 3D7 P. falciparum strain, 4710 nM.

For the compound `Cc1ccc(Nc2c(-c3cccc(F)c3)nc3n2CC(=O)NC3(C)C)cc1F` [Compound 603], the EC50 with W2 strain (Plasmodium falciparum) worked out at 73 nM; with 3D7 P. falciparum strain it was 50 nM.

Turning to `CN1Cc2nc(-c3ccc(F)cc3)c(Nc3ccc(Cl)cc3)n2C(C)(C)C1` [Compound 608], the EC50 with W2 strain (Plasmodium falciparum) amounted to 5560 nM; in the assay on 3D7 P. falciparum strain, 6910 nM.

With `Cc1cc(Nc2c(-c3ccc(F)cc3)nc3n2CC(=O)N(CCN(C)C)C3(C)C)ccc1F` [Compound 683], the EC50 is 112 nM with W2 strain (Plasmodium falciparum) and 125 nM in the assay with 3D7 P. falciparum strain.

`O=C(Cn1ccc2ccccc21)N1CCn2c(nc(-c3ccc(F)cc3)c2Nc2ccc(Cl)c(F)c2)C1` [Compound 303]: the EC50 was 439 nM in the assay with W2 strain and 540 nM with 3D7 P. falciparum strain.

Consider `CCCNC(=O)C[C@H](NC(=O)OC(C)(C)C)C(=O)N1CCn2c(nc(-c3cccc(F)c3)c2Nc2ccc(Cl)c(F)c2)C1` [Compound 247], for which the values for the EC50 with W2 strain and in the assay on 3D7 P. falciparum strain were 3940 nM and 1420 nM, respectively.

Turning to `N[C@@H](CC1CCC1)C(=O)N1CCn2c(nc(-c3ccc(F)cc3)c2Nc2ccc(Cl)c(F)c2)C1` [Compound 325], the values for the EC50 in the assay on W2 strain and in the assay with 3D7 P. falciparum strain were 29 nM and 30 nM, respectively.

Take `CC1(C)CN(C(=O)CN)Cc2nc(-c3cccc(F)c3)c(Nc3ccc(F)c(Cl)c3)n21` [Compound 624]: the EC50 with W2 strain (Plasmodium falciparum) was found to be 167 nM; in the assay on 3D7 P. falciparum strain it was 100 nM.

`CC1CC(Nc2c(-c3ccc(F)cc3)nc3n2CCN(C(=O)CN)C3(C)C)CC(C)(C)C1` (stereo not shown) [Compound 666]: the EC50 was 4970 nM in the assay on W2 strain (Plasmodium falciparum) and greater than 10000 nM in the assay on 3D7 P. falciparum strain.

For the compound `Cc1ccc(Nc2c(-c3ccc(F)cc3)nc3n2CCN(C(=O)C2(N)CCCCC2)C3)cc1` [Compound 141], the EC50 with W2 strain was 90 nM; in the assay on 3D7 P. falciparum strain it was 70 nM.

As for `CC1(C)CN(C(=O)CN)Cc2nc(-c3cccc(F)c3)c(Nc3ccc(Cl)c(F)c3)n21` [Compound 623], the results for the EC50 in the assay on W2 strain (Plasmodium falciparum) and in the assay with 3D7 P. falciparum strain were 32 nM and 30 nM, respectively.

On to `Cc1ccc(Nc2c(-c3ccc(F)cc3)nc3cnccn23)cc1` [Example 136, 2-(4-fluorophenyl)-N-p-tolylimidazo[1,2-a]pyrazin-3-amine], for which the EC50 was determined as 2690 nM in the assay with W2 strain and 2020 nM with 3D7 P. falciparum strain.

In the case of `Cc1ccc(Nc2c(-c3ccc(F)cc3)nc3ccc(C)cn23)cc1` [Compound 748], the half-maximal effective concentration (EC50) was 4150 nM in the assay with W2 strain (Plasmodium falciparum) and 3440 nM in the assay with 3D7 P. falciparum strain.

For the compound `CC1(C)c2nc(-c3ccc(F)cc3)cn2CCN1C(=O)C(N)CCc1ccc(Cl)cc1` (stereo not shown) [Compound 702], the EC50 in the assay on W2 strain (Plasmodium falciparum) was 5850 nM; in the assay on 3D7 P. falciparum strain, 6030 nM.

As to `CC1(C)c2nc(-c3ccc(F)cc3)c([S+]([O-])c3ccc(F)cc3)n2CCN1C(=O)CN` (stereo not shown) [Compound 720], the EC50 with W2 strain (Plasmodium falciparum) is 69 nM; in the assay on 3D7 P. falciparum strain, 70 nM.

For `CNCC(=O)N1CCn2c(nc(-c3ccc(F)cc3)c2Nc2ccc(Cl)cc2)C1` [Compound 77], the EC50 with W2 strain was determined as 39 nM; in the assay with 3D7 P. falciparum strain, 60 nM.

`Cc1ccc(Nc2c(-c3ccc(F)cc3)nc3n2CCN(C(=O)C[C@@H](O)c2ccccc2)C3)cc1` [Compound 135]: the EC50 in the assay on W2 strain worked out at 33 nM; in the assay with 3D7 P. falciparum strain it was 50 nM.

As for `Cc1ccc(Nc2c(-c3ccc(F)cc3)nc3n2CCN(C(=O)C(C)Oc2cccc(Cl)c2)C3)cc1` (stereo not shown) [Compound 203], the figures for the EC50 in the assay with W2 strain and in the assay with 3D7 P. falciparum strain were 369 nM and 970 nM, respectively.

For the compound `CC1(C)c2nc(-c3ccc(F)cc3)c(NC3CCC(c4ccccc4)CC3)n2CCN1C(=O)CN` (stereo not shown) [Compound 661], the EC50 in the assay with W2 strain (Plasmodium falciparum) stood at 520 nM; in the assay with 3D7 P. falciparum strain, 339 nM.

Consider `CC(C)(C)[C@H](N)C(=O)N1CCn2c(nc(-c3ccc(F)cc3)c2Nc2ccc(Cl)c(F)c2)C1` [Compound 326], for which the EC50 with W2 strain worked out at 22 nM; in the assay on 3D7 P. falciparum strain it was 30 nM.

As for `Cc1ccc(Nc2c(-c3ccc(F)c(F)c3)nc3n2CCN(C(=O)[C@H](O)C(C)C)C3)cc1` [Compound 391], the EC50 with W2 strain was found to be 7 nM; with 3D7 P. falciparum strain it was 10 nM.

Consider `NCC(=O)N1CCn2c(nc(-c3ccc(F)cc3)c2Nc2cc(F)cc(F)c2)C1` [Compound 67], for which the results for the EC50 in the assay with W2 strain and in the assay with 3D7 P. falciparum strain were 197 nM and 190 nM, respectively.

`Cc1ccc(Nc2c(-c3ccc(F)cc3)nc3n2CCN(C(=O)N2CCC(N(C)C)C2)C3)cc1` (stereo not shown) [Example 251, (3-(dimethylamino)pyrrolidin-1-yl)(2-(4-fluorophenyl)-3-(p-tolylamino)-5,6-dihydroimidazo[1,2-a]pyrazin-7(8H)-yl)methanone]: the EC50 turned out to be 2550 nM in the assay with W2 strain and 3680 nM in the assay on 3D7 P. falciparum strain.

Consider `CC1(C)NC(=O)Cn2c1nc(-c1cccc(F)c1)c2Nc1ccc(Cl)c(F)c1` [Compound 605], for which the EC50 in the assay on W2 strain (Plasmodium falciparum) amounted to 57 nM; in the assay with 3D7 P. falciparum strain it was 40 nM.

`Cc1ccc(Nc2c(-c3ccc(F)cc3)nc3n2CCN(C(=O)[C@@H]2CC(=O)N2)C3)cc1` [Compound 162]: the EC50 with W2 strain was determined as 1380 nM; with 3D7 P. falciparum strain, 1780 nM.

As for `CN[C@@H](Cc1ccccc1)C(=O)N1CCn2c(nc(-c3ccc(F)cc3)c2Nc2ccc(C)cc2)C1` [Compound 149], the EC50 in the assay on W2 strain was found to be 11 nM; with 3D7 P. falciparum strain, 20 nM.

`Fc1ccc(Nc2c(-c3cccc(F)c3)nc3n2CCNC3)cc1` [Compound 191]: the EC50 in the assay on W2 strain is 151 nM; in the assay with 3D7 P. falciparum strain it was 170 nM.
